ChEMBL document CHEMBL1145587, “Facile formation of hydrophilic derivatives of 5H-8,9-dimethoxy-5-[2-(N,N-dimethylamino)ethyl]-2,3-methylenedioxydibenzo[c,h] [1,6]naphthyridin-6-one (ARC-111) and its 12-aza analog via quaternary ammonium intermediates” (Bioorg Med Chem Lett, 2008)

Assays:
[1] = Cytotoxicity against human camptothecin-resistant CPT-K5 cells; type: functional, cell-based
[2] = Cytotoxicity against human […] cells; type: functional, cell-based
[3] = Cytotoxicity against […] cells; type: functional, cell-based; details: Mus musculus, P388CPT45
[4] = system: P388; test: Cytotoxicity against […] cells; type: functional, cell-based; details: Mus musculus
[5] = biological target: T1, DNA topoisomerase 1 (Homo sapiens) (UniProt P11387); test: Effect on human topoisomerase 1-mediated plasmid DNA cleavage relative to topotecan
T1 sequence (whole entry): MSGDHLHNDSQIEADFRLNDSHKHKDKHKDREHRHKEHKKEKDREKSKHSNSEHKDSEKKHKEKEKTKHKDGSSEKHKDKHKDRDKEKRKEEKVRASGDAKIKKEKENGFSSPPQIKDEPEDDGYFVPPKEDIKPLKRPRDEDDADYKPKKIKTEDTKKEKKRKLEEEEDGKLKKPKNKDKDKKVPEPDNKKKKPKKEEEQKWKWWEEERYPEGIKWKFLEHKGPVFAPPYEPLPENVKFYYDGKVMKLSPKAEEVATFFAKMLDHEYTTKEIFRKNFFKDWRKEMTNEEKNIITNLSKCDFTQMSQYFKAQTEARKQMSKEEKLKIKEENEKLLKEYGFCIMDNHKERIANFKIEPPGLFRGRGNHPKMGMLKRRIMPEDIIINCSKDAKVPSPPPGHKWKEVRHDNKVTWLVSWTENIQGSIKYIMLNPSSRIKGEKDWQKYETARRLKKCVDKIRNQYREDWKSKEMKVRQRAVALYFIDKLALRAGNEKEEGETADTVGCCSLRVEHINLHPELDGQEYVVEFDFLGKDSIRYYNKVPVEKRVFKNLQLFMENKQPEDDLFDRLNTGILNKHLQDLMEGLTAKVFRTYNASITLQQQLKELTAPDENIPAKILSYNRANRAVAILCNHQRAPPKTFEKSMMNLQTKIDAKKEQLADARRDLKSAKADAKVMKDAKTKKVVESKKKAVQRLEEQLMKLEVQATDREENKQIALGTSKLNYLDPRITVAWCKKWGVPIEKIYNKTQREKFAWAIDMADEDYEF

| SMILES | IC50 [1] [nM] | IC50 [2] [nM] | IC50 [3] [nM] | IC50 [4] [nM] | Activity [5] |
| --- | --- | --- | --- | --- | --- |
| COc1cc2c(=O)n(CCN(C)CCN(C)C)c3c4cc5c(cc4ncc3c2cc1OC)OCO5 | 2200 | 45 | 70 | 35 | 0.7 |
| COc1cc2c(=O)n(CCN(C)C)c3c4cc5c(cc4nnc3c2cc1OC)OCO5 | 740 | 2 | 230 | 2 | 0.3 |
| COc1cc2c(=O)n(CCn3ccnc3)c3c4cc5c(cc4ncc3c2cc1OC)OCO5 | > 10000 | 210 | > 10000 | 200 | 2.3 |
| COc1cc2c(=O)n(CCNC(CO)(CO)CO)c3c4cc5c(cc4ncc3c2cc1OC)OCO5 | 7000 | 330 | 3500 | 330 | 2 |
| COc1cc2c(=O)n(CCN(C)C)c3c4cc5c(cc4ncc3c2cc1OC)OCO5 | 900 | 2 | 230 | 1 | 0.3 |
| COc1cc2c(=O)n(CCN(C)CCN(C)C)c3c4cc5c(cc4nnc3c2cc1OC)OCO5 | 2200 | 33 | 300 | 19 | 0.4 |
| COc1cc2c(=O)n(CCO)c3c4cc5c(cc4ncc3c2cc1OC)OCO5 | > 10000 | 30 | 900 | 30 | 4.7 |
| COc1cc2c(=O)n(CCO)c3c4cc5c(cc4nnc3c2cc1OC)OCO5 | 1300 | 13 | 700 | 12 | 0.3 |
| COc1cc2c(=O)n(CCn3ccnc3)c3c4cc5c(cc4nnc3c2cc1OC)OCO5 | > 10000 | 400 | > 10000 | 190 | 0.1 |
| COc1cc2c(=O)n(CCNC(CO)(CO)CO)c3c4cc5c(cc4nnc3c2cc1OC)OCO5 | 5700 | 65 | 3000 | 40 | 0.2 |
| CC[C@@]1(O)C(=O)OCc2c1cc1n(c2=O)Cc2cc3ccccc3nc2-1 [CAMPTOTHECIN] | > 10000 | 4 | > 10000 | 4 | 0.2 |
